The values that follow come from patent publication US20210244028A1, “TREATMENT FOR REMOVING ECTOPARASITES FROM FISH” (priority 2018, published 2021).

The structures appear in SMILES notation. “And” between values parts separate entries of the source, which are not always exact repeats. Equal entries are not always repeated. Where two headings read alike, the source gives them in different places.

Assay [1] relates to Lepeophtheirus salmonis. The following applies: for percentage of sea lice that dropped from treated fish at the end of the treatment period / knockdown times (mean±SEM) / percentage of lice for which their knockdown time equalled that of the exposure time: 20 ppm (nitenpyram 19 ppm); for percentage of sea lice that dropped from treated fish at the end of the treatment period: culled fish; for knockdown times (mean±SEM) / percentage of lice for which their knockdown time equalled that of the exposure time: * only one louse knocked down. Here is the method: The fish were acclimatised until normal feeding behaviour resumed, up to a maximum of 10 days, prior to challenge. The fish were housed in 750 litre tanks at a stocking density of no greater than 35 kg/m3. Tanks were provided with a continuous supply of seawater at a flow rate greater than 5 L/min at a temperature of 4.8-10.4° C. The photoperiod was set at 12 hours light: 12 hours dark.
The fish were challenged in a static bath with copepodid instar of Lepeophtheirus salmonis with the appearance of egg strings freshly removed from adult female lice at a target titre of 1,250-1,700 copepodids per tank
Egg strings were harvested from gravid sea lice and incubated in upwelling chambers until nauplii eclosion. Nauplii were allowed to moult through to the copepodid instar (5 days at approx. 10° C.) and then the tank water was filtered through a 100 μm mesh before re-suspending the copepodids in 225 mL of sea water. A 25 mL sample was removed which was then split into 1-2 mL samples in a 24-well plate and the nauplii/copepodids were counted under a stereo microscope. When abundance was sufficient and a minimum of 80% were copepodids the fish were challenged for 8 hours under static flow in the dark.
Fish were randomly selected from tanks, lightly sedated in a 90 ppm MS222 solution sufficient only to induce loss of equilibrium before being sacrificed by a non-recoverable blow to the head. Between 4 and 33 fish were required per treatment.
Culled fish were then suspended in treatment tanks. Fish were suspended in the tank horizontally from cable ties (one through the opercular cavity, one around the peduncle) and wire attached to a wooden rod). One 20 L tank of test item at 20 ppm was used per day. Lice on culled fish were exposed for either 5, 10, 15, 30 or 60 minutes (negative control was only exposed for 60 minutes as this would cover the longest exposure period to be tested). The order within treatment was randomised.
(§1) Lice were monitored continuously for the duration of the exposure and behavioural observations noted, including detachment of lice from fish. At the end of exposure lice were either removed from the tank or fish, placed into small vented plastic screw-top containers (125 mL, LDPE, 25 mm hole drilled into lid and secured with 200 μm mesh), and transferred to a clean tank supplied with filtered sea water and held there for 24 h. Lice which had detached from fish were kept separate from those that had not detached.
On the day of exposure, 200 mg of the test ectoparasite treatments was added to 1 L of sea water. Only 192 mg of nitenpyram was supplied. The solution was mechanically stirred for 30 minutes, using a stirring plate and magnetic flea (VWR), at a speed sufficient to generate a strong vortex to ensure a homogenous solution. This was then transferred into an approx. 25 L clear plastic tank containing 9 L of sea water. The solution was then mixed for a further 10 minutes using a small pump (Fluval Sea CP1), which was then removed from the tank prior to addition of fish.
Each treatment requiring 1 to 4 fish per individual treatment per replicate and 2 to 13 fish per group per replicate. Treatments with negative control (sea water), dinotefuran, clothianidin and thiamethoxam were replicated twice, and for imidacloprid three times. There was only one replicate per treatment for nitenpyram. The mean number of lice used per individual treatment was 5.5 to 10, with the mean per group being 6.2-7.2 lice.

Assay [2] relates to Lepeophtheirus salmonis. To be noted: for percentage responsiveness of lice recovered from tank at treatment end at 24 hours post-treatment: lice knocked off fish. Here is the method:
as §1
24 h post-treatment lice were removed from the screw-top containers to check if they were alive and, if so, if they were responsive. Categories were defined as follows: alive—movement detected; responsive—alive and actively avoids stimulation in a coordinated manner; dead—no movement detected.
Lice defined as responsive could potentially re-attach to a fish. After assessment lice were transferred to 70% alcohol in case determination of instar and sex was required.

Where [3] appears, read: exposure 5 min, 20 ppm (nitenpyram 19 ppm), 24 h post-treatment.
Setting [4] is: exposure 10 min, 20 ppm (nitenpyram 19 ppm), 24 h post-treatment.
Where [5] appears, read: exposure 15 min, 20 ppm (nitenpyram 19 ppm), 24 h post-treatment.
The mark [6] stands for this setting: exposure 15 min, 20 ppm (nitenpyram 19 ppm).
Where [7] appears, read: exposure 30 min, 20 ppm (nitenpyram 19 ppm), 24 h post-treatment.
[8] abbreviates: exposure 30 min, 20 ppm (nitenpyram 19 ppm).
Where [9] appears, read: exposure 60 min, 20 ppm (nitenpyram 19 ppm), 24 h post-treatment.
Where [10] appears, read: exposure 60 min, 20 ppm (nitenpyram 19 ppm).

`CN/C(=N\[N+](=O)[O-])NCc1cnc(Cl)s1` [clothianidin]: the “percentage of sea lice that dropped from treated fish at the end of the treatment period” value (shortened to “percentage of sea lice that dropped”) stood at 0% with Lepeophtheirus salmonis [1] (exposure 5 min); 0% with Lepeophtheirus salmonis [1] (exposure 10 min); 9.1% with Lepeophtheirus salmonis [1] (exposure 15 min); 69.2% in the assay on Lepeophtheirus salmonis [1] (exposure 30 min); 54.5% with Lepeophtheirus salmonis [1] (exposure 60 min). The “knockdown times (mean±SEM)” value with Lepeophtheirus salmonis [1] (exposure 15 min) is 900* seconds; in the assay with Lepeophtheirus salmonis [1] (exposure 30 min), 1706 ± 71 s; in the assay on Lepeophtheirus salmonis [1] (exposure 60 min) it was 2289 ± 424 s. Also, the “percentage of lice for which their knockdown time equalled that of the exposure time” value (“percentage of lice” for short) in the assay on Lepeophtheirus salmonis [1] (exposure 15 min) is 100* %; in the assay on Lepeophtheirus salmonis [1] (exposure 30 min), 77.8%; in the assay on Lepeophtheirus salmonis [1] (exposure 60 min), 33.3%. The “percentage responsiveness for sea lice recovered from fish at the end of the treatment period” value in the assay with Lepeophtheirus salmonis [2] (setting [3]) stood at 100%; with Lepeophtheirus salmonis [2] (setting [4]) it was 93%; with Lepeophtheirus salmonis [2] (setting [5]), 90%; in the assay on Lepeophtheirus salmonis [2] (setting [7]), 75%; with Lepeophtheirus salmonis [2] (setting [9]), 100%. In addition, the figures for the “percentage responsiveness of lice recovered from tank at treatment end at 24 hours post-treatment” value in the assay on Lepeophtheirus salmonis [2] (setting [6]), with Lepeophtheirus salmonis [2] (setting [8]) and in the assay on Lepeophtheirus salmonis [2] (setting [10]) were 0%, 44% and 33%, respectively.
As for `CN/C(=N/CC1CCOC1)N[N+](=O)[O-]` (centres unmarked) [dinotefuran], the “percentage of sea lice that dropped” value in the assay on Lepeophtheirus salmonis [1] (exposure 5 min) stood at 0%; in the assay on Lepeophtheirus salmonis [1] (exposure 10 min), 0%; in the assay on Lepeophtheirus salmonis [1] (exposure 15 min) it was 0%; in the assay on Lepeophtheirus salmonis [1] (exposure 30 min), 7.7%; in the assay with Lepeophtheirus salmonis [1] (exposure 60 min) it was 53.3%. Also, the “knockdown times (mean±SEM)” value is 900* seconds in the assay with Lepeophtheirus salmonis [1] (exposure 15 min), 1800* seconds in the assay on Lepeophtheirus salmonis [1] (exposure 30 min) and 3109 ± 224 s in the assay with Lepeophtheirus salmonis [1] (exposure 60 min). Besides, the “percentage of lice” value was 100* % in the assay on Lepeophtheirus salmonis [1] (exposure 15 min), 100* % in the assay with Lepeophtheirus salmonis [1] (exposure 30 min) and 25% in the assay with Lepeophtheirus salmonis [1] (exposure 60 min). Moreover, the “percentage responsiveness for sea lice recovered from fish at the end of the treatment period” value in the assay with Lepeophtheirus salmonis [2] was 88% and 73% and 100% and 69% and 83%. Further, the “percentage responsiveness of lice recovered from tank at treatment end at 24 hours post-treatment” value in the assay on Lepeophtheirus salmonis [2] (setting [6]) turned out to be 100%; in the assay on Lepeophtheirus salmonis [2] (setting [8]), 0%; in the assay on Lepeophtheirus salmonis [2] (setting [10]), 71%.
In the case of `CCN(Cc1ccc(Cl)nc1)/C(=C/[N+](=O)[O-])NC` [nitenpyram], the “percentage of sea lice that dropped” value in the assay on Lepeophtheirus salmonis [1] (exposure 5 min) is listed as 0%; in the assay with Lepeophtheirus salmonis [1] (exposure 10 min) it was 0%; in the assay with Lepeophtheirus salmonis [1] (exposure 15 min), 16.7%; with Lepeophtheirus salmonis [1] (exposure 30 min) it was 0%; with Lepeophtheirus salmonis [1] (exposure 60 min), 14.3%. Besides, the results for the “knockdown times (mean±SEM)” value in the assay with Lepeophtheirus salmonis [1] (exposure 15 min) and in the assay with Lepeophtheirus salmonis [1] (exposure 60 min) were 900* seconds and 3600* seconds, respectively. Besides, the “percentage of lice” value in the assay with Lepeophtheirus salmonis [1] (exposure 15 min) and with Lepeophtheirus salmonis [1] (exposure 60 min) was 100* % throughout. For the same compound, in the assay with Lepeophtheirus salmonis [2] (all exposure durations (5-60 min), 19 ppm), the “Responsiveness of lice still on fish at end of exposure” value is “unaffected at all exposure durations”. The “percentage responsiveness for sea lice recovered from fish at the end of the treatment period” value with Lepeophtheirus salmonis [2] (setting [3]), with Lepeophtheirus salmonis [2] (setting [4]), with Lepeophtheirus salmonis [2] (setting [5]), in the assay on Lepeophtheirus salmonis [2] (setting [7]) and in the assay on Lepeophtheirus salmonis [2] (setting [9]) was 100% throughout. Besides, the “percentage responsiveness of lice recovered from tank at treatment end at 24 hours post-treatment” value in the assay with Lepeophtheirus salmonis [2] (setting [6]) and in the assay on Lepeophtheirus salmonis [2] (setting [10]) was 0% throughout.
For the compound `CN1COCN(Cc2cnc(Cl)s2)/C1=N\[N+](=O)[O-]` [thiamethoxam], the Knockdown effect result in the assay with Lepeophtheirus salmonis [1] (20 ppm, exposure 5 to 60 minutes) is “No knockdown”. Besides, the “percentage of sea lice that dropped” value in the assay on Lepeophtheirus salmonis [1] (exposure 5 min), in the assay with Lepeophtheirus salmonis [1] (exposure 10 min), with Lepeophtheirus salmonis [1] (exposure 15 min), in the assay with Lepeophtheirus salmonis [1] (exposure 30 min) and with Lepeophtheirus salmonis [1] (exposure 60 min) was 0% in each case. Moreover, the “percentage responsiveness for sea lice recovered from fish at the end of the treatment period” value in the assay on Lepeophtheirus salmonis [2] (setting [3]) worked out at 100%; in the assay with Lepeophtheirus salmonis [2] (setting [4]), 100%; with Lepeophtheirus salmonis [2] (setting [5]) it was 100%; with Lepeophtheirus salmonis [2] (setting [7]) it was 100%; in the assay on Lepeophtheirus salmonis [2] (setting [9]) it was 92%.
